Experimental data as given in ChEMBL document CHEMBL5678812, “Inhibitors of p21-activated kinases (PAKs)” (J Med Chem, 2015).

Experiments:
[1] = target: Activin receptor type-1B (Homo sapiens) (UniProt P36896); experiment: Inhibition of ACVRB (unknown origin) at 0.1 uM relative to control
[2] = target: RAC-alpha serine/threonine-protein kinase (Homo sapiens) (UniProt P31749); experiment: Inhibition of AKT1 (unknown origin) at 0.1 uM relative to control
[3] = target: Protein-tyrosine kinase 6 (Homo sapiens) (UniProt Q13882); experiment: Inhibition of Brk (unknown origin) at 0.1 uM relative to control
[4] = target: Casein kinase I isoform epsilon (Homo sapiens) (UniProt P49674); experiment: Inhibition of CK1epsilon (unknown origin) at 0.1 uM relative to control
[5] = target: Casein kinase I isoform gamma-2 (Homo sapiens) (UniProt P78368); experiment: Inhibition of CK1gamma2 (unknown origin) at 0.1 uM relative to control
[6] = target: Macrophage colony-stimulating factor 1 receptor (Homo sapiens) (UniProt P07333); experiment: Inhibition of CSF1R (unknown origin) at 0.1 uM relative to control
[7] = target: Mitogen-activated protein kinase kinase kinase 8 (Homo sapiens) (UniProt P41279); experiment: Inhibition of Cot (unknown origin) at 0.1 uM relative to control
[8] = target: Dual specificity tyrosine-phosphorylation-regulated kinase 3 (Homo sapiens) (UniProt O43781); experiment: Inhibition of DYRK3 (unknown origin) at 0.1 uM relative to control
[9] = target: Epidermal growth factor receptor (Homo sapiens) (UniProt P00533); experiment: Inhibition of EGFR (unknown origin) at 0.1 uM relative to control
[10] = target: Ephrin type-A receptor 1 (Homo sapiens) (UniProt P21709); experiment: Inhibition of EphA1 (unknown origin) at 0.1 uM relative to control
[11] = target: Ephrin type-B receptor 4 (Homo sapiens) (UniProt P54760); experiment: Inhibition of EphB4 (unknown origin) at 0.1 uM relative to control
[12] = target: Fibroblast growth factor receptor 2 (Homo sapiens) (UniProt P21802); experiment: Inhibition of FGFR2 (unknown origin) at 0.1 uM relative to control
Fibroblast growth factor receptor 2 (Homo sapiens), sequence (P21802 22-821 limits assumed): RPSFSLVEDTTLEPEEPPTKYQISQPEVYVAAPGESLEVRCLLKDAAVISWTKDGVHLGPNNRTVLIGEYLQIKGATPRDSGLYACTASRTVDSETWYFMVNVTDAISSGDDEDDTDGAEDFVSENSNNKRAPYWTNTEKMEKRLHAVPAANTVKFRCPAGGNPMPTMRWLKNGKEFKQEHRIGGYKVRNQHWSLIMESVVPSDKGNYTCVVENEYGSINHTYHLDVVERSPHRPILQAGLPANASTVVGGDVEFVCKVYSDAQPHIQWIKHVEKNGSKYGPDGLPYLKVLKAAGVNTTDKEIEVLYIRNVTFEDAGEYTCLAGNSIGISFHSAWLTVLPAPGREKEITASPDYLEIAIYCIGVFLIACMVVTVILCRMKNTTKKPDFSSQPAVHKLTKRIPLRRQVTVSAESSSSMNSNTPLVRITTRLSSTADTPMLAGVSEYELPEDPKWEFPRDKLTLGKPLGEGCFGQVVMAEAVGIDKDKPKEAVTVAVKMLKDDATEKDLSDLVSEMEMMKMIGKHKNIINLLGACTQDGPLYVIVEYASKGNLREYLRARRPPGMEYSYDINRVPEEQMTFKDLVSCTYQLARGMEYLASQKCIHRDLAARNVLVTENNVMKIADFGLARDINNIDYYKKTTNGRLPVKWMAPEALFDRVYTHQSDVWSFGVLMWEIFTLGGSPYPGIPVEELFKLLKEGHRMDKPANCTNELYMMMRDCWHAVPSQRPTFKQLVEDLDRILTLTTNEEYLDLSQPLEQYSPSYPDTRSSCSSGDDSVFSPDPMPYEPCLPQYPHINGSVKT

[13] = target: Fibroblast growth factor receptor 3 (Homo sapiens) (UniProt P22607); experiment: Inhibition of FGFR3 (unknown origin) at 0.1 uM relative to control
[14] = target: Vascular endothelial growth factor receptor 1 (Homo sapiens) (UniProt P17948); experiment: Inhibition of Flt1 (unknown origin) at 0.1 uM relative to control
[15] = target: Mitogen-activated protein kinase kinase kinase kinase 2 (Homo sapiens) (UniProt Q12851); experiment: Inhibition of GCK (unknown origin) at 0.1 uM relative to control
[16] = target: Homeodomain-interacting protein kinase 4 (Homo sapiens) (UniProt Q8NE63); experiment: Inhibition of HIPK4 (unknown origin) at 0.1 uM relative to control
[17] = target: Tyrosine-protein kinase JAK3 (Homo sapiens) (UniProt P52333); experiment: Inhibition of JAK3 (unknown origin) at 0.1 uM relative to control
[18] = target: Mitogen-activated protein kinase 9 (Homo sapiens) (UniProt P45984); experiment: Inhibition of JNK2 (unknown origin) at 0.1 uM relative to control
Mitogen-activated protein kinase 9 (Homo sapiens), sequence (P45984 whole entry, looked up): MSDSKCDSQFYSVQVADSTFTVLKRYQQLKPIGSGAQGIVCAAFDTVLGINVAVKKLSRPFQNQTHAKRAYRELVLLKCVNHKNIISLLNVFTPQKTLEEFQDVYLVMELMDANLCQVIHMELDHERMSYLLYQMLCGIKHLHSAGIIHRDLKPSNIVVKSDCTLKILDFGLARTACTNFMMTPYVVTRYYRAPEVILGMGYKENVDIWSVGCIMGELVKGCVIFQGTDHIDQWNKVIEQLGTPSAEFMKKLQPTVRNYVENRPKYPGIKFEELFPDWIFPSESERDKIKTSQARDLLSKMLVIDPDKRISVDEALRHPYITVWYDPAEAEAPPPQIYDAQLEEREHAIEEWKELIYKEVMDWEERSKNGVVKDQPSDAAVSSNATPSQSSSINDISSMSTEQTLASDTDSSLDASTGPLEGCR

[19] = target: Mitogen-activated protein kinase 10 (Homo sapiens) (UniProt P53779); experiment: Inhibition of JNK3 (unknown origin) at 0.1 uM relative to control
Mitogen-activated protein kinase 10 (Homo sapiens), sequence (P53779 whole entry): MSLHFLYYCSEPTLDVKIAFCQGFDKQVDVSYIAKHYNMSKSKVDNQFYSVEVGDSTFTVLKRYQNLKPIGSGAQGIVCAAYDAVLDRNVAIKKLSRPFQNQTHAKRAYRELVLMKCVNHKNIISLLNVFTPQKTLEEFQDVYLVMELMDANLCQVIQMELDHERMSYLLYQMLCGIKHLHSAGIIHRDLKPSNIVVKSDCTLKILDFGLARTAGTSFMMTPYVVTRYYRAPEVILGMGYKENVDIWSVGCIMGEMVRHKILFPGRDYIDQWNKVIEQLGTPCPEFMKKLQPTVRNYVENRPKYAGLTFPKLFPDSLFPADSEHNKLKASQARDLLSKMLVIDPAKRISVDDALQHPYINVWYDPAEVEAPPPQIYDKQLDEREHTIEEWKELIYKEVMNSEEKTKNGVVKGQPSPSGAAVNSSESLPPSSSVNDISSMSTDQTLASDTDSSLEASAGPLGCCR

[20] = target: Vascular endothelial growth factor receptor 2 (Homo sapiens) (UniProt P35968); experiment: Inhibition of KDR (unknown origin) at 0.1 uM relative to control
[21] = target: Mitogen-activated protein kinase kinase kinase kinase 4 (Homo sapiens) (UniProt O95819); experiment: Inhibition of MAP4K4 (unknown origin) at 0.1 uM relative to control
[22] = target: Serine/threonine-protein kinase MARK1 (Homo sapiens) (UniProt Q9P0L2); experiment: Inhibition of MARK1 (unknown origin) at 0.1 uM relative to control
[23] = target: Serine/threonine-protein kinase 24 (Homo sapiens) (UniProt Q9Y6E0); experiment: Inhibition of MST3 (unknown origin) at 0.1 uM relative to control
[24] = target: Myosin light chain kinase 2, skeletal/cardiac muscle (Homo sapiens) (UniProt Q9H1R3); experiment: Inhibition of MYLK2 (unknown origin) at 0.1 uM relative to control
[25] = target: Tyrosine-protein kinase Mer (Homo sapiens) (UniProt Q12866); experiment: Inhibition of Mer (unknown origin) at 0.1 uM relative to control
[26] = target: Serine/threonine-protein kinase PAK 2 (Homo sapiens, UniProt Q13177); experiment: Inhibition of PAK2 (unknown origin) at 0.1 uM relative to control
[27] = target: Serine/threonine-protein kinase PAK 6 (Homo sapiens, UniProt Q9NQU5); experiment: Inhibition of PAK6 (unknown origin) at 0.1 uM relative to control
[28] = target: Platelet-derived growth factor receptor beta (Homo sapiens) (UniProt P09619); experiment: Inhibition of PDGFRbeta (unknown origin) at 0.1 uM relative to control
[29] = target: Serine/threonine-protein kinase pim-1 (Homo sapiens) (UniProt P11309); experiment: Inhibition of PIM1 (unknown origin) at 0.1 uM relative to control
[30] = target: Serine/threonine-protein kinase N1 (Homo sapiens) (UniProt Q16512); experiment: Inhibition of PRK1 (unknown origin) at 0.1 uM relative to control
[31] = target: Proto-oncogene tyrosine-protein kinase receptor Ret (Homo sapiens) (UniProt P07949); experiment: Inhibition of Ret (unknown origin) at 0.1 uM relative to control
Proto-oncogene tyrosine-protein kinase receptor Ret (Homo sapiens), sequence (P07949 whole entry): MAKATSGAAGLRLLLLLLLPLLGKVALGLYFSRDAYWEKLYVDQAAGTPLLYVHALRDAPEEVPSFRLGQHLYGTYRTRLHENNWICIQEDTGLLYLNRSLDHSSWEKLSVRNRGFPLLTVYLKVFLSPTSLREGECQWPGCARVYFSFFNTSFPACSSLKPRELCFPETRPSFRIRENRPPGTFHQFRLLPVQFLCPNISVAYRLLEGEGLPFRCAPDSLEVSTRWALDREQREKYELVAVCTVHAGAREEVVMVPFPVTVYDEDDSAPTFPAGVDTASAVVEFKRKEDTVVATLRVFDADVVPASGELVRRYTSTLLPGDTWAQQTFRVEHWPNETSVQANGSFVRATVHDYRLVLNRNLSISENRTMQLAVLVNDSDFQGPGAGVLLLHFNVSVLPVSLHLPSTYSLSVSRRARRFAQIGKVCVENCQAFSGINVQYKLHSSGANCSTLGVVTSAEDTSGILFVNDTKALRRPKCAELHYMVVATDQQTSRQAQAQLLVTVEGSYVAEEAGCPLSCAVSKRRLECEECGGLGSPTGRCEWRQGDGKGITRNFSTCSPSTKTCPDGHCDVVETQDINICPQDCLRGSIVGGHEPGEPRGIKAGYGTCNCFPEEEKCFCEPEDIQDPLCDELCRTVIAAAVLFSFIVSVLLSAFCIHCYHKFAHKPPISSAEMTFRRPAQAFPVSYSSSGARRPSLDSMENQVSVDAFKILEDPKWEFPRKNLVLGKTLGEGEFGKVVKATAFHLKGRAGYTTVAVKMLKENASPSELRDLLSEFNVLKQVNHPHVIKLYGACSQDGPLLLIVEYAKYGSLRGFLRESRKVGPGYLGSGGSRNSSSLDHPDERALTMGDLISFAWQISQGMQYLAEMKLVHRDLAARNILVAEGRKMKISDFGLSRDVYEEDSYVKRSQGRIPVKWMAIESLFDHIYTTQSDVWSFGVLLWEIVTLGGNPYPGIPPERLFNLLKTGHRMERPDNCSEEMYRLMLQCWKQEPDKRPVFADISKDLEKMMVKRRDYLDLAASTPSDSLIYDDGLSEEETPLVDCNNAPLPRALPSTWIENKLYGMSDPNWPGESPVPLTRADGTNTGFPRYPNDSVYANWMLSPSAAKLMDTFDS

[32] = target: Ribosomal protein S6 kinase alpha-3 (Homo sapiens) (UniProt P51812); experiment: Inhibition of Rsk2 (unknown origin) at 0.1 uM relative to control
Ribosomal protein S6 kinase alpha-3 (Homo sapiens), sequence (P51812 whole entry): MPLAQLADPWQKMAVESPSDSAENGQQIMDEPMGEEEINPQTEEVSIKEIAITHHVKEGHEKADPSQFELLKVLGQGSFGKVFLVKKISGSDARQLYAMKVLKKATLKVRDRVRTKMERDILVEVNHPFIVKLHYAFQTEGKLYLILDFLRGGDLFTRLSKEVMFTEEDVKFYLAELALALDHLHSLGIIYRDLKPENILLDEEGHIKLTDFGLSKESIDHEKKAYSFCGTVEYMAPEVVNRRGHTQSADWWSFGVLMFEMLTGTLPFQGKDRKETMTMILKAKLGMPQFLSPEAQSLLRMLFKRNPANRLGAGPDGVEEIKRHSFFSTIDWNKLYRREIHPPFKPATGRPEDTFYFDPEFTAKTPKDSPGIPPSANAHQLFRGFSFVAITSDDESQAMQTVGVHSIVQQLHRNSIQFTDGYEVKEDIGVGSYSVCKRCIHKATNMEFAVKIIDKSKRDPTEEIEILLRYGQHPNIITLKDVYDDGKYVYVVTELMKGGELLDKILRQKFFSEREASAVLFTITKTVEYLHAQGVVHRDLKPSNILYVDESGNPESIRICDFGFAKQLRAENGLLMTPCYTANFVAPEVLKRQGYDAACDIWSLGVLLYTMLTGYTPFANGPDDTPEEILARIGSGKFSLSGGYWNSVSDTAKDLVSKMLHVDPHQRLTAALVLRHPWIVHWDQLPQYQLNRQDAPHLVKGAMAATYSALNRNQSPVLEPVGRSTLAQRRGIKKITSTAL

[33] = target: Ribosomal protein S6 kinase alpha-2 (Homo sapiens) (UniProt Q15349); experiment: Inhibition of Rsk3 (unknown origin) at 0.1 uM relative to control
Ribosomal protein S6 kinase alpha-2 (Homo sapiens), sequence (Q15349 whole entry): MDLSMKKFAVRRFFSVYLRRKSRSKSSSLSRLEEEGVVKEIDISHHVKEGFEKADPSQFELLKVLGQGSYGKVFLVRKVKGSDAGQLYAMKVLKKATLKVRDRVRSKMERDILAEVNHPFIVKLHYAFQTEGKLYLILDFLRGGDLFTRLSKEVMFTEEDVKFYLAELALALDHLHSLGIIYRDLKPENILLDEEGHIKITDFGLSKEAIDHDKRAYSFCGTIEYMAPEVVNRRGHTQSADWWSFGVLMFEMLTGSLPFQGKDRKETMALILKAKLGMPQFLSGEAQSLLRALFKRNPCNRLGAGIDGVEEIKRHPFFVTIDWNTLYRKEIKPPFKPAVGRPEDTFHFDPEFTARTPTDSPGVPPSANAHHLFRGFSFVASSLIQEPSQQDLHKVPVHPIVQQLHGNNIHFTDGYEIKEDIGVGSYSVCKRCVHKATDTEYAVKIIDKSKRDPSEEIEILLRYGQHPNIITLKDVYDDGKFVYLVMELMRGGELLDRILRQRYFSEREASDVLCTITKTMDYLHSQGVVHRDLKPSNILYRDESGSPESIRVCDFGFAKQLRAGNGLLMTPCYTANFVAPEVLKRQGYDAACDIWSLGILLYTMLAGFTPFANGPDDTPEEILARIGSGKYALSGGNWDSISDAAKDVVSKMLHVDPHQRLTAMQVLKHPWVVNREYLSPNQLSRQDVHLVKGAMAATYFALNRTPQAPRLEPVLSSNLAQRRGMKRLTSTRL

[34] = target: Serine/threonine-protein kinase Sgk3 (Homo sapiens) (UniProt Q96BR1); experiment: Inhibition of SGK3 (unknown origin) at 0.1 uM relative to control
[35] = target: Serine/threonine-protein kinase SIK2 (Homo sapiens) (UniProt Q9H0K1); experiment: Inhibition of SIK2 (unknown origin) at 0.1 uM relative to control
[36] = target: Tyrosine-protein kinase SYK (Homo sapiens) (UniProt P43405); experiment: Inhibition of Syk (unknown origin) at 0.1 uM relative to control
[37] = target: High affinity nerve growth factor receptor (Homo sapiens) (UniProt P04629); experiment: Inhibition of TrkA (unknown origin) at 0.1 uM relative to control
High affinity nerve growth factor receptor (Homo sapiens), sequence (P04629 33-796 limits assumed): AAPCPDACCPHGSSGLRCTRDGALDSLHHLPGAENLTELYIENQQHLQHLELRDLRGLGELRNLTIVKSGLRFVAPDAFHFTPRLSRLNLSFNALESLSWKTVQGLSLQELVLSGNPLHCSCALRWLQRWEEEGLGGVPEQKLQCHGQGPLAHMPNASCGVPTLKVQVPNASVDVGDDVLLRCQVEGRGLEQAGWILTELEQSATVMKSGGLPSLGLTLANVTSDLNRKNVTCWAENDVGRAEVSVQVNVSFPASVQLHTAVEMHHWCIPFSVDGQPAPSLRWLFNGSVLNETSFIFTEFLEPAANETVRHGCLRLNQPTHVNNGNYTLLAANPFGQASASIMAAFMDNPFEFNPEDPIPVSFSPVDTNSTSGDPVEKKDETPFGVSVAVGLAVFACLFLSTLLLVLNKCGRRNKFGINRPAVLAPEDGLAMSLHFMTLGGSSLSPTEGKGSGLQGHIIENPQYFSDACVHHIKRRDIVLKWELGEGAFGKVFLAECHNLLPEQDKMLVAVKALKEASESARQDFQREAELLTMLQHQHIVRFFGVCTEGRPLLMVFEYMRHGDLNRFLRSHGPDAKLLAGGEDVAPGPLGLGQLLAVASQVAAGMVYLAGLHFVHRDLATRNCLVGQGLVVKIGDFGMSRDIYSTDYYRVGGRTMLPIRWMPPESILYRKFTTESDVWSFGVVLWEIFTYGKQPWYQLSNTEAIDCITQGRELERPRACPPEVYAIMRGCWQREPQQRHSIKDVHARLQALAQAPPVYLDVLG

[38] = target: Tyrosine-protein kinase ZAP-70 (Homo sapiens) (UniProt P43403); experiment: Inhibition of ZAP-70 (unknown origin) at 0.1 uM relative to control
[39] = target: Mitogen-activated protein kinase 13 (Homo sapiens) (UniProt O15264); experiment: Inhibition of p38delta (unknown origin) at 0.1 uM relative to control
Homo sapiens = species on record: Homo sapiens; experiment: Inhibition of p70S6K (unknown origin) at 0.1 uM relative to control

Row | inhibition [1] [%] | inhibition [2] [%] | inhibition [3] [%] | inhibition [4] [%] | inhibition [5] [%] | inhibition [6] [%] | inhibition [7] [%] | inhibition [8] [%] | inhibition [9] [%] | inhibition [10] [%] | inhibition [11] [%] | inhibition [12] [%] | inhibition [13] [%] | inhibition [14] [%] | inhibition [15] [%] | inhibition [16] [%] | inhibition [17] [%] | inhibition [18] [%] | inhibition [19] [%] | inhibition [20] [%] | SMILES | further results
1 | 79.3 | 3.3 | 92.5 | 44 | -1.5 | 85.7 | 19.6 | 3.8 | 38 | 90.7 | 78.9 | 55.6 | 45.5 | 18.6 | 69.8 | 18.6 | 45.4 | 14.8 | 2.3 | 72.2 | CN1CCc2cc(-c3cnc4[nH]cc(C(=O)c5ccccc5Cl)c4c3)ccc2C1 | inhibition [21]: 104%; inhibition [22]: 25.8%; inhibition [23]: 70.2%; inhibition [24]: 25.5%; inhibition [25]: 53.8%; inhibition [26]: 97.7%; inhibition [27]: 21.8%; inhibition [28]: 96%; inhibition [29]: -2%; inhibition [30]: -1.6%; inhibition [31]: 18.4%; inhibition [32]: 6%; inhibition [33]: -6%; inhibition [34]: 19.5%; inhibition [35]: 96.3%; inhibition [36]: 37.1%; inhibition [37]: 51.6%; inhibition [38]: 4.5%; inhibition [39]: 5.1%; inhibition (Homo sapiens): 15.3%
2 | -0.1 | 1.1 | 10.2 | 7.3 | 18.3 | 2.5 | 2.8 | 0.9 | 2.4 | 5 | 5.3 | 6.8 | 7.6 | -6 | 1 | 5 | -1.3 | -1 | 2.7 | -3.1 | COCCNc1nc2ccc(C#CC3(O)CCCCC3)cc2n1-c1ccnc(N)n1 | inhibition [21]: 14.6%; inhibition [22]: 11.3%; inhibition [23]: 5.9%; inhibition [24]: -1.5%; inhibition [25]: 8.2%; inhibition [26]: 14.9%; inhibition [27]: 49.9%; inhibition [28]: 0.7%; inhibition [29]: 3.8%; inhibition [30]: -2.3%; inhibition [31]: 4.4%; inhibition [32]: 11.7%; inhibition [33]: 14.9%; inhibition [34]: 9.3%; inhibition [35]: 0.8%; inhibition [36]: 4.3%; inhibition [37]: 9%; inhibition [38]: 2.4%; inhibition [39]: 8.4%; inhibition (Homo sapiens): 7.2%
